The values that follow come from article PMC10391610, “Survivin prevents the polycomb repressor complex 2 from methylating histone 3 lysine 27” (iScience, 2023).

One assay deals with T1, [U-15N]-survivin (Homo sapiens, UniProt O15392).
T1 construct: transferred to the survivin1-142 construct used in the present study; His8 tag (pHIS8 vector, thrombin-cleavable); made in house; host or cells: E. coli BL21(DE3) star, M9 medium with 15NH4Cl
Nature of the assay: NMR titration of [U-15N]-survivin with PRC2-derived peptides. It is filed as binding. The protocol:
Uniformly [U] labeled [U-^15N] survivin was produced in H2O-based M9 medium[69] containing ^15NH4Cl as the sole nitrogen and in case of or [U-^15N,^13C] survivin D-(^13C)-glucose was additionally added as the sole carbon source, respectively (Sigma-Aldrich). Expression was induced with 0.5 mM IPTG and continued for 20–22 h at 15°C. Cell harvesting and subsequent purification followed the same protocol as for unlabeled survivin.
NMR measurements were performed on Bruker (Fällanden, Switzerland) AvanceIII 800 MHz spectrometers running Topspin 3.5 or 3.6, respectively, equipped with cryogenically cooled triple resonance probes. All NMR experiments were performed in NMR buffer (50 mM Tris, 150 mM NaCl, 1 mM DTT, pH 7.5) and at 298 K. The sequence-specific backbone assignment of survivin1-117 was taken from previously published assignment,[50] and transferred to the survivin1-142 construct used in the present study. Existing resonance assignments were confirmed, and additional resonances were assigned in a sequence-specific manner by the following experiments: [^1H,^15N]-TROSY HSQC,[70] BEST-TROSY-type HNCA and HNCO experiments.[71]
The peptides were synthetized and purified to 95% by Biomatik. The peptides were titrated into ^15N labelled survivin (0.3 mM). Standard 2D [^15N,^1H]-SOFAST-HMQC[72] experiments were recorded with inter-scan delays of 200 ms and 1025 x 256 complex points for the ^1H and ^15N dimensions, respectively, for the titrations of the different peptides with [U-^15N] survivin.
For the global analysis, the NMR signal strength was quantified by summing the 200 highest values in each 2D NMR spectrum to ensure that all peaks corresponding to the different amino acid residues in survivin are potentially covered. The titration curve was modelled using a Bayesian machine learning approach using the python library pymc3.[66] The logistic function was chosen due to computational convenience. The most important parameter of this function was coined “critical peptide concentration (cpc)” and its logarithm was modelled using a uniform a priori distribution between −10 and 1. p(log10cpc|lower=−10,upper=1)=1/upper−lower
The modelling errors related to the choice of function affect the analysis of different peptides similarly. Therefore, the relative magnitude of cpc in comparison is more reliable than the absolute magnitude of cpc itself. The concentration values were converted to dimensionless quantities by dividing with 1 mM and the NMR signal intensity was normalized for the concentration range studied.
A deterministic sigmoid (logistic) function was used to model signal decay as a function of peptide concentration. Additional a priori assumptions of the function parameters were the following: p(k|lower=−10,upper=10)=1/upper−lower p(L|lower=−3,upper=3)=1/upper−lower p(b|lower=−10,upper=10)=1/upper−lower
1000 posterior samples were collected in four parallel chains using the No-U-Turn sampling algorithm (NUTS) after 2000 tuning steps/chain.[83] The default sampling parameters were used except for “target accept” parameter, which was increased to 0.95. For the final analysis the 1000 samples from the four chains were merged to yield 4000 samples.

A further assay has as its target T2, survivin (Homo sapiens, UniProt O15392).
T2 construct: transferred to the survivin1-142 construct used in the present study; His8 tag (pHIS8 vector, thrombin-cleavable); made in house; host or cells: E. coli BL21(DE3) star
Nature of the assay: Biolayer interferometry, immobilized EZH2 peptide, survivin as analyte. Format: binding. The protocol: EZH2_178-211 peptide from previous peptide microarray experiments were used as immobilized ligands using amine reactive second-generation biosensor (AR2G, Fortebio, Fremont, CA, USA). Ethanolamine was used to quench unbound AR2G surface to prevent non-specific interactions. The biosensor was incubated in MQ water for 15 minutes before use in the Octet instrument (Fortebio, Fremont, CA, USA) with the following settings: equilibration in water for 60 s and 1000 rpm shaking, activation in EDC/s-NHS for 300 s at 1000 rpm, peptide immobilization in immobilization buffer pH 6.0 (Fortebio) for 900 s and 1000 rpm (50 μM for the peptide), quenching with 1 M ethanolamine for 300 s and 1000 rpm, baseline measurement in survivin SEC buffer for 600 s and 1000 rpm, association with survivin (100 nM, 33.3 nM, 11.1 nM, and 3.7 nM concentrations) as the experiment analyte for 600 s and 1000 rpm, and dissociation step in survivin SEC buffer for 1200 s and 1000 rpm. The assay was performed at 30°C. The reference wells and reference biosensors were subtracted.
Δλ(t) values were converted to dimensionless quantities by dividing the wavelength shifts with 1 nm prior to the analysis. To develop the model, we tentatively assumed Langmuir’s 1:1 model.[85] The kinetic modelling was performed with the pymc3 python package[66] using a Bayesian model: p(KD,app|lower=10^−15,upper=10^−3)=1/upper−lower p(k−1|lower=10^−20,upper=10)=1/upper−lower k1=k−1/KD,app p(A|lower=10^−6,upper=10)=1/upper−lower p(ε|lower=10^−6,upper=1)=1/upper−lower p(Δλ(0)|μ=⟨Δλi⟩,σ=1/10∑(Δλi−⟨Δλi⟩)^2/n)=1/2πσe^−1/2σ(Δλ(t)−μ)^2;Δλ(0)∈[10^−20,+∞]
The association and dissociation phases were modelled simultaneously, and the probability of wavelength shift during association phase was modeled as: p(Δλ(t)|μ=Ac/KD,app+c(1−e^−(k1c+k−1)t),σ=ε)=1/2πσe^−1/2σ(Δλ(t)−μ)^2
The probability of wavelength shift during the dissociation phase was modelled as: p(Δλ(t)|μ=Δλ(0)e^−k−1t,σ=ε)=1/2πσe^−1/2σ(Δλ(t)−μ)^2, where A and k1 are the amplitude and rate constant of the exponential association process, respectively. The concentration of the analyte is c and KD,app is the apparent dissociation constant. The dissociation rate constant is marked with k-1. ε represents the standard deviation of Δλ(t) . The total amplitude of wavelength shift is the wavelength shift at the beginning of the dissociation phase ( Δλ(0) ). Its prior distribution is modeled by a truncated normal distribution with parameters based on an empirical Bayes estimate of the starting observations. The data points in the interval 0 to 1 s are represented by the index i. The residual plots from the Bayesian model used in the BLI experiment with peptide EZH2_172-211 and survivin are shown in Figure S6.

T2 sequence (O15392 whole entry): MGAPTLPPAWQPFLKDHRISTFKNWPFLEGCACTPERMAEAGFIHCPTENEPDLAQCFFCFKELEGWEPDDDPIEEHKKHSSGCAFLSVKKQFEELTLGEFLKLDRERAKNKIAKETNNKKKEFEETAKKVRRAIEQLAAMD
T1 sequence (O15392 whole entry): as above

Turning to “VELVNALGQYNDDDDDDDGD DPEEREEKQKDLEDHRDDKE [EZH2_172-211, PRC2-derived peptide, EZH2 residues 172–211, synthesized by Biomatik]”, in assay [U-15N]-survivin (300 μM survivin (monomer), pH 7.5, 298 K), the critical peptide concentration stood at 2.1 µM. Moreover, the “<L>” value in assay [U-15N]-survivin (logistic function parameter L, posterior mean (Table S10)) is listed as 0.68. In addition, the “<b>” value in assay [U-15N]-survivin (logistic function parameter b, posterior mean (Table S10)) was 0.32. Besides, in assay [U-15N]-survivin (logistic function parameter k, posterior mean (Table S10)), the “<k>” value is -1.04. Further, the “binding strength from slow exchange regime (in words)” value in assay [U-15N]-survivin (new resonances at high peptide concentrations, 298 K) is given as “strong binding in the low nanomolar range or below”. The “BLI interaction (in words)” value on survivin (EZH2_172-211-coated sensors, survivin 100, 33 and 11 nM) was “Survivin interacted with EZH2_172-211-coated sensors at concentrations of 100, 33, and 11 nM”. Moreover, at survivin (summary of posterior parameters, when the apparent dissociation constant is well defined), the “apparent dissociation constant (in words)” value is “nanomolar interaction”. For the same sequence, the “A (amplitude of association)” value on survivin (survivin 3.7 nM, posterior mean ± SD) worked out at 0.18 ± 0.21 nm; on survivin (survivin 33 nM, posterior mean, SD 1.8×10-4), 0.11 nm; at survivin (survivin 100 nM, posterior mean, SD 1.1×10-4) it was 0.23 nm.
